Where “and” joins values, the source holds several entries; their conditions need not be identical. Equal entries are not always repeated. Toxic doses and inconclusive results are not listed. Rule for the calls: active = survival T/C of 150% or more; inactive = T/C below 125% in these data.
Test system: P388 leukemia ip, CD2F1 mice, survival T/C
Experiment: NCI In Vivo Anticancer Drug Screen. Data for tumor model P388 Leukemia (intraperitoneal) in CD2F1 (CDF1) mice
Conditions: endpoint: median survival time, higher = longer survival
In short: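 Mice carrying the transplanted tumor received test compound or vehicle. Survival was recorded in each group, and the value is the treated-group measurement divided by that of the vehicle-treated control group.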

[1] = dose: 100.0 mg/kg/injection, schedule: Q01DX009 (ip), vehicle: Klucel (hydroxypropylcellulose) (HPC)
[2] = dose: 60.0 mg/kg/injection, schedule: Q01DX005 (ip), vehicle: Klucel (hydroxypropylcellulose) (HPC)
[3] = dose: 120.0 mg/kg/injection, schedule: Q01DX005 (ip), vehicle: Klucel (hydroxypropylcellulose) (HPC)
[4] = dose: 240.0 mg/kg/injection, schedule: Q01DX005 (ip), vehicle: Klucel (hydroxypropylcellulose) (HPC)
[5] = dose: 50.0 mg/kg/injection, schedule: Q01DX005 (ip), vehicle: saline with Tween-80
[6] = dose: 50.0 mg/kg/injection, schedule: Q01DX005 (ip), vehicle: Klucel (hydroxypropylcellulose) (HPC)
[7] = dose: 100.0 mg/kg/injection, schedule: Q01DX005 (ip), vehicle: Klucel (hydroxypropylcellulose) (HPC)
[8] = dose: 200.0 mg/kg/injection, schedule: Q01DX005 (ip), vehicle: Klucel (hydroxypropylcellulose) (HPC)

Measured: T/C

O=[N+]([O-])c1nccn1CC(O)CF (stereo not drawn)
inactive: dose: 86.4 mg/kg/injection, schedule: Q01DX005 (ip), vehicle: saline + Tween-80 + alcohol 104 % of control | dose: 144.0 mg/kg/injection, schedule: Q01DX005 (ip), vehicle: saline + Tween-80 + alcohol 89 % of control | dose: 216.0 mg/kg/injection, schedule: Q01DX001 (ip), vehicle: saline + Tween-80 + alcohol 100 % of control | dose: 216.0 mg/kg/injection, schedule: Q01DX001 (ip), vehicle: saline with Tween-80 100 % of control | dose: 240.0 mg/kg/injection, schedule: Q01DX005 (ip), vehicle: saline + Tween-80 + alcohol 103 % of control | dose: 360.0 mg/kg/injection, schedule: Q01DX001 (ip), vehicle: saline + Tween-80 + alcohol 104 % of control | dose: 360.0 mg/kg/injection, schedule: Q01DX001 (ip), vehicle: saline with Tween-80 104 % of control | dose: 600.0 mg/kg/injection, schedule: Q01DX001 (ip), vehicle: saline + Tween-80 + alcohol 101 % of control | dose: 600.0 mg/kg/injection, schedule: Q01DX001 (ip), vehicle: saline with Tween-80 101 % of control

CC/C(=C/C(F)(F)C(F)(F)C(F)(F)F)[N+](=O)[O-]
inactive: dose: 25.0 mg/kg/injection, schedule: Q01DX009 (ip), vehicle: Klucel (hydroxypropylcellulose) (HPC) 96 % of control | dose: 50.0 mg/kg/injection, schedule: Q01DX009 (ip), vehicle: Klucel (hydroxypropylcellulose) (HPC) 104 % of control | [1] 102 % of control

CC1OC(c2c(Cl)cccc2[N+](=O)[O-])OC1C (stereo not drawn)
inactive: [2] 99 % of control | [3] 91 % of control | [4] 92 % of control

CC(C)=NOCCC#N
inactive: dose: 60.0 mg/kg/injection, schedule: Q01DX005 (ip), vehicle: saline 99 % of control | dose: 120.0 mg/kg/injection, schedule: Q01DX005 (ip), vehicle: saline 99 % of control | dose: 240.0 mg/kg/injection, schedule: Q01DX005 (ip), vehicle: saline 101 % of control

COC(=O)C(CO)NC(=O)OCc1ccccc1 (stereo not drawn)
inactive: dose: 25.0 mg/kg/injection, schedule: Q01DX005 (ip), vehicle: water 99 % of control | dose: 50.0 mg/kg/injection, schedule: Q01DX005 (ip), vehicle: water 94 % of control | dose: 50.0 mg/kg/injection, schedule: Q01DX009 (ip), vehicle: distilled water + alcohol 95 % of control | dose: 100.0 mg/kg/injection, schedule: Q01DX005 (ip), vehicle: water 105 % of control | dose: 100.0 mg/kg/injection, schedule: Q01DX009 (ip), vehicle: distilled water + alcohol 98 % of control | dose: 200.0 mg/kg/injection, schedule: Q01DX005 (ip), vehicle: water 99 % of control | dose: 200.0 mg/kg/injection, schedule: Q01DX009 (ip), vehicle: distilled water + alcohol 100 % of control | dose: 400.0 mg/kg/injection, schedule: Q01DX009 (ip), vehicle: distilled water + alcohol 96 % of control

NC(=O)N/N=C/c1cccs1
inactive: dose: 3.12 mg/kg/injection, schedule: Q01DX009 (ip), vehicle: saline with Tween-80 97 % of control | dose: 6.25 mg/kg/injection, schedule: Q01DX009 (ip), vehicle: saline with Tween-80 97 % of control | dose: 12.5 mg/kg/injection, schedule: Q01DX009 (ip), vehicle: saline with Tween-80 93 % of control

N#CC(CCCC(C#N)(c1ccccc1)c1ccccc1)(c1ccccc1)c1ccccc1
inactive: dose: 100.0 mg/kg/injection, schedule: Q01DX001 (ip), vehicle: Klucel (hydroxypropylcellulose) (HPC) 100 % of control | dose: 200.0 mg/kg/injection, schedule: Q01DX001 (ip), vehicle: Klucel (hydroxypropylcellulose) (HPC) 101 % of control | dose: 400.0 mg/kg/injection, schedule: Q01DX001 (ip), vehicle: Klucel (hydroxypropylcellulose) (HPC) 105 % of control

[CH3][Sn]1([CH3])[O]C2C(O)OC(CO)C(O)C2[O]1 (stereo not drawn)
inactive: dose: 6.25 mg/kg/injection, schedule: Q01DX005 (ip), vehicle: Klucel (hydroxypropylcellulose) (HPC) 108 % of control and 113 % of control | dose: 12.5 mg/kg/injection, schedule: Q01DX005 (ip), vehicle: Klucel (hydroxypropylcellulose) (HPC) 110 % of control and 111 % of control (2×) | dose: 25.0 mg/kg/injection, schedule: Q01DX005 (ip), vehicle: Klucel (hydroxypropylcellulose) (HPC) 109 % of control and 120 % of control and 121 % of control

CC1(O)CC[N+](C)(C)CC1c1ccccc1 (stereo not drawn)
inactive: dose: 50.0 mg/kg/injection, schedule: Q04DX003 (ip), vehicle: saline 118 % of control | dose: 100.0 mg/kg/injection, schedule: Q04DX003 (ip), vehicle: saline 113 % of control

CC1=C(CN(CC(=O)O)CC(=O)O)C(=O)C(C(C)C)=C/C1=C(\c1ccccc1S(=O)(=O)O)c1cc(C(C)C)c(O)c(CN(CC(=O)O)CC(=O)O)c1C
inactive: dose: 50.0 mg/kg/injection, schedule: Q01DX009 (ip), vehicle: saline 108 % of control | dose: 100.0 mg/kg/injection, schedule: Q01DX009 (ip), vehicle: saline 104 % of control | dose: 200.0 mg/kg/injection, schedule: Q01DX009 (ip), vehicle: saline 103 % of control

CC1CC(C(=O)c2ccoc2)C(=O)O1 (stereo not drawn)
inactive: dose: 12.5 mg/kg/injection, schedule: Q01DX005 (ip), vehicle: saline with Tween-80 92 % of control | dose: 25.0 mg/kg/injection, schedule: Q01DX005 (ip), vehicle: saline with Tween-80 97 % of control | [5] 101 % of control and 91 % of control

COc1ccc2nc(CC(=N)c3ccc(N(C)C)cc3)ccc2c1
inactive: [5] 89 % of control | dose: 100.0 mg/kg/injection, schedule: Q01DX005 (ip), vehicle: saline with Tween-80 89 % of control | dose: 200.0 mg/kg/injection, schedule: Q01DX005 (ip), vehicle: saline with Tween-80 92 % of control

O=C(Nc1ccc(Cl)cc1)OC1CCS(=O)(=O)C1 (stereo not drawn)
inactive: [1] 100 % of control | dose: 200.0 mg/kg/injection, schedule: Q01DX009 (ip), vehicle: Klucel (hydroxypropylcellulose) (HPC) 89 % of control

CCC(C)N(CC(C)C)CC(C)(O)CNc1cc(OC)cc2cccnc12 (stereo not drawn)
inactive: dose: 12.0 mg/kg/injection, schedule: Q01DX005 (ip), vehicle: saline 100 % of control | dose: 25.0 mg/kg/injection, schedule: Q01DX005 (ip), vehicle: saline 105 % of control | dose: 50.0 mg/kg/injection, schedule: Q01DX005 (ip), vehicle: saline 108 % of control and 96 % of control

O=C(CC(=O)C(F)(F)F)c1cc2ccccc2s1
inactive: dose: 25.0 mg/kg/injection, schedule: Q01DX009 (ip), vehicle: saline with Tween-80 113 % of control | dose: 50.0 mg/kg/injection, schedule: Q01DX009 (ip), vehicle: saline with Tween-80 96 % of control | dose: 100.0 mg/kg/injection, schedule: Q01DX009 (ip), vehicle: saline with Tween-80 115 % of control

Cc1oc2c(C)c3oc(=O)cc(C)c3cc2c1CN
inactive: dose: 12.5 mg/kg/injection, schedule: Q01DX001 (ip), vehicle: Klucel (hydroxypropylcellulose) (HPC) 111 % of control | dose: 25.0 mg/kg/injection, schedule: Q01DX001 (ip), vehicle: Klucel (hydroxypropylcellulose) (HPC) 96 % of control

CC(C)CC(NC(=O)C(CS)NC(=O)CN1C(=O)CCC1=O)C(N)=O (stereo not drawn)
inactive: [6] 105 % of control | [7] 100 % of control | [8] 101 % of control

CSc1nc(NC2OC(CO)C(O)C(O)C2O)c(C=O)c(=O)n1C (stereo not drawn)
inactive: dose: 60.0 mg/kg/injection, schedule: Q01DX005 (ip), vehicle: saline with Tween-80 100 % of control | dose: 120.0 mg/kg/injection, schedule: Q01DX005 (ip), vehicle: saline with Tween-80 92 % of control | dose: 240.0 mg/kg/injection, schedule: Q01DX005 (ip), vehicle: saline with Tween-80 91 % of control

Cc1ccc([B-]23OCC[N+]2(CNC(=O)C2=C(O)C4(O)C(=O)C5=C(O)c6c(O)cccc6C(C)(O)C5CC4C(N(C)C)C2=O)CCO3)cc1 (stereo not drawn)
inactive: [6] 108 % of control | [7] 108 % of control | [8] 113 % of control

CCOC(=O)Nc1cc(NCC(=O)c2ccc3ccccc3c2)c([N+](=O)[O-])c(N)n1
inactive: [2] 92 % of control | [3] 91 % of control | [4] 98 % of control

From PubChem BioAssay AID330 (DTP/NCI, 2004)
